Measured values from US6737383B1, “Herbicidal oxadiazolidines” (priority 1999, dated 2004).

What was measured:
surinam grass = assay: Test B pre/postemergence surinam grass; assay type: in vivo, Brachiaria decumbens
How it was run: (§1)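 Test chemicals in a non-phytotoxic solvent mixture with surfactant were sprayed preemergence onto planted seeds and postemergence onto plants 2 to 18 cm tall (1- to 4-leaf stage). After twelve to sixteen days in a greenhouse, injury was visually rated against untreated controls from 0 (no effect) to 10 (complete control).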

blackgrass = assay: Test B pre/postemergence blackgrass; assay type: in vivo, Alopecurus myosuroides
How it was run: as §1

sugar beet = assay: Test B pre/postemergence sugar beet; assay type: in vivo, Beta vulgaris
How it was run: as §1

smallflower flatsedge = assay: Test B flood test smallflower flatsedge; assay type: in vivo, Cyperus difformis
How it was run: (§2)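 Plants were grown to the 2-leaf stage before treatment with test chemical, then held in a greenhouse for twelve to sixteen days. Injury was visually rated against untreated controls on a 0–10 scale, where 0 is no effect and 10 is complete control.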

soybean = assay: Test B pre/postemergence soybean; assay type: in vivo, Glycine max
How it was run: as §1

rape = assay: Test B pre/postemergence rape; assay type: in vivo, Brassica napus
How it was run: as §1

purple nutsedge = assay: Test B pre/postemergence purple nutsedge; assay type: in vivo, Cyperus rotundus
How it was run: as §1

wheat = assay: Test B pre/postemergence wheat; assay type: in vivo, Triticum aestivum
How it was run: as §1

bamyardgrass = assay: Test B flood test barnyardgrass; assay type: in vivo, Echinochloa crus-galli
How it was run: as §2

wild oat = assay: Test B pre/postemergence wild oat; assay type: in vivo, Avena fatua
How it was run: as §1

cocklebur = assay: Test B pre/postemergence cocklebur; assay type: in vivo, Xanthium strumarium
How it was run: as §1

pigweed = assay: Test B pre/postemergence pigweed; assay type: in vivo, Amaranthus retroflexus
How it was run: as §1

crabgrass = assay: Test B pre/postemergence crabgrass; assay type: in vivo, Digitaria sanguinalis
How it was run: as §1

corn = assay: Test B pre/postemergence corn; assay type: in vivo, Zea mays
How it was run: as §1

velvetleaf = assay: Test B pre/postemergence velvetleaf; assay type: in vivo, Abutilon theophrasti
How it was run: as §1

bedstraw = assay: Test B pre/postemergence bedstraw; assay type: in vivo, Galium aparine
How it was run: as §1

[1] = Postemergence, Rate 62 g/ha, scale 0 to 10, 0 is no effect, 10 is complete control
[2] = Postemergence, Rate 250 g/ha, scale 0 to 10, 0 no effect, 10 complete control
[3] = Preemergence, Rate 62 g/ha, scale 0 to 10 (0 no effect, 10 complete control)
[4] = Preemergence, Rate 125 g/ha, scale 0 to 10 (0 no effect, 10 complete control)
[5] = Preemergence, Rate 250 g/ha, scale of 0 to 10 where 0 is no effect and 10 is complete control
[6] = Preemergence, Rate 500 g/ha, scale 0 (no effect) to 10 (complete control)
[7] = Rate 125 g/ha, Postemergence, scale 0 to 10, 0 no effect, 10 complete control
[8] = Rate 500 g/ha, Postemergence, scale 0 to 10, 0 no effect, 10 complete control
[9] = Rate 125 g/ha, Postemergence section (flood test species), scale 0 to 10, 0 no effect, 10 complete control
[10] = Rate 500 g/ha, listed under Postemergence (flood test species), scale 0 to 10, 0 no effect, 10 complete control
[11] = flood test, listed under Postemergence, Rate 250 g/ha, scale 0 to 10, 0 no effect, 10 complete control

SMILES: CCN(C(=O)n1oc(=O)n(-c2c(C)cc(C)cc2C)c1=O)C1CCCCC1 [Compound 63]
- B. signalgrass plant response rating (surinam grass; [1]): 0
- B. signalgrass plant response rating (surinam grass; [2]): 0
- B. signalgrass plant response rating (surinam grass; [3]): 0
- Plant response rating, B. signalgrass (surinam grass; [4]): 0
- Plant response rating, B. signalgrass (surinam grass; [5]): 0
- B. signalgrass plant response rating (surinam grass; [6]): 0
- B. signalgrass plant response rating (surinam grass; [7]): 0
- B. signalgrass plant response rating (surinam grass; Rate 500 g/ha, Postemergence, scale of 0 to 10 where 0 is no effect and 10 is complete control): 0
- Blackgrass plant response rating (blackgrass; [1]): 0
- Blackgrass plant response rating (blackgrass; [2]): 0
- Blackgrass plant response rating (blackgrass; [3]): 0
- Plant response rating, Blackgrass (blackgrass; [4]): 0
- Plant response rating, Blackgrass (blackgrass; [5]): 0
- Blackgrass plant response rating (blackgrass; [6]): 0
- Blackgrass plant response rating (blackgrass; [7]): 0
- Blackgrass plant response rating (blackgrass; [8]): 0
- Sugarbeets plant response rating (sugar beet; [1]): 0
- Sugarbeets plant response rating (sugar beet; [2]): 2
- Sugarbeets plant response rating (sugar beet; [3]): 0
- Plant response rating, Sugarbeets (sugar beet; [4]): 0
- Plant response rating, Sugarbeets (sugar beet; [5]): 0
- Sugarbeets plant response rating (sugar beet; [6]): 0
- Sugarbeets plant response rating (sugar beet; [7]): 0
- Sugarbeets plant response rating (sugar beet; [8]): 3
- S. Flatsedge plant response rating (smallflower flatsedge; [1]): 0
- S. Flatsedge plant response rating (smallflower flatsedge; [9]): 0
- S. Flatsedge plant response rating (smallflower flatsedge; [10]): 0
- S. Flatsedge plant response rating (smallflower flatsedge; [11]): 0
- Soybean plant response rating (soybean; [1]): 2
- Soybean plant response rating (soybean; [2]): 2
- Soybean plant response rating (soybean; [3]): 0
- Plant response rating, Soybean (soybean; [4]): 0
- Plant response rating, Soybean (soybean; [5]): 0
- Soybean plant response rating (soybean; [6]): 0
- Soybean plant response rating (soybean; [7]): 2
- Soybean plant response rating (soybean; [8]): 3
- Rape plant response rating (rape; [1]): 0
- Rape plant response rating (rape; [2]): 0
- Rape plant response rating (rape; [3]): 0
- Plant response rating, Rape (rape; [4]): 0
- Plant response rating, Rape (rape; [5]): 0
- Rape plant response rating (rape; [7]): 0
- Rape plant response rating (rape; [8]): 0
- Nutsedge plant response rating (purple nutsedge; [1]): 0
- Nutsedge plant response rating (purple nutsedge; [2]): 2
- Nutsedge plant response rating (purple nutsedge; [3]): 0
- Plant response rating, Nutsedge (purple nutsedge; [4]): 0
- Plant response rating, Nutsedge (purple nutsedge; [5]): 0
- Nutsedge plant response rating (purple nutsedge; [6]): 6
- Nutsedge plant response rating (purple nutsedge; [7]): 0
- Nutsedge plant response rating (purple nutsedge; [8]): 2
- Wheat plant response rating (wheat; [1]): 0
- Wheat plant response rating (wheat; [2]): 0
- Wheat plant response rating (wheat; [3]): 0
- Plant response rating, Wheat (wheat; [4]): 0
- Plant response rating, Wheat (wheat; [5]): 0
- Wheat plant response rating (wheat; [6]): 0
- Wheat plant response rating (wheat; [7]): 0
- Wheat plant response rating (wheat; [8]): 2
- Barnyardgrass plant response rating (bamyardgrass; [1]): 0
- Barnyardgrass plant response rating (bamyardgrass; [9]): 0
- Barnyardgrass plant response rating (bamyardgrass; [10]): 0
- Barnyardgrass plant response rating (bamyardgrass; [11]): 0
- Wild oats plant response rating (wild oat; [1]): 0
- Wild oats plant response rating (wild oat; [2]): 0
- Wild oats plant response rating (wild oat; [3]): 0
- Plant response rating, Wild oats (wild oat; [4]): 0
- Plant response rating, Wild oats (wild oat; [5]): 0
- Wild oats plant response rating (wild oat; [6]): 0
- Wild oats plant response rating (wild oat; [7]): 0
- Wild oats plant response rating (wild oat; [8]): 2
- Cocklebur plant response rating (cocklebur; [1]): 0
- Cocklebur plant response rating (cocklebur; [2]): 0
- Cocklebur plant response rating (cocklebur; [3]): 0
- Plant response rating, Cocklebur (cocklebur; [4]): 0
- Plant response rating, Cocklebur (cocklebur; [5]): 0
- Cocklebur plant response rating (cocklebur; [6]): 0
- Cocklebur plant response rating (cocklebur; [7]): 0
- Cocklebur plant response rating (cocklebur; [8]): 0
- Redroot pigweed plant response rating (pigweed; [1]): 0
- Redroot pigweed plant response rating (pigweed; [2]): 0
- Redroot pigweed plant response rating (pigweed; [3]): 0
- Plant response rating, Redroot pigweed (pigweed; [4]): 0
- Plant response rating, Redroot pigweed (pigweed; [5]): 0
- Redroot pigweed plant response rating (pigweed; [6]): 0
- Redroot pigweed plant response rating (pigweed; [7]): 0
- Redroot pigweed plant response rating (pigweed; [8]): 2
- Crabgrass plant response rating (crabgrass; [1]): 0
- Crabgrass plant response rating (crabgrass; [2]): 0
- Crabgrass plant response rating (crabgrass; [3]): 0
- Plant response rating, Crabgrass (crabgrass; [4]): 0
- Plant response rating, Crabgrass (crabgrass; [5]): 1
- Crabgrass plant response rating (crabgrass; [6]): 2
- Crabgrass plant response rating (crabgrass; [7]): 0
- Crabgrass plant response rating (crabgrass; [8]): 2
- Corn plant response rating (corn; [1]): 0
- Corn plant response rating (corn; [2]): 2
- Corn plant response rating (corn; [3]): 0
- Plant response rating, Corn (corn; [4]): 0
- Plant response rating, Corn (corn; [5]): 0
- Corn plant response rating (corn; [6]): 0
- Corn plant response rating (corn; [7]): 0
- Corn plant response rating (corn; [8]): 2
- Velvetleaf plant response rating (velvetleaf; [1]): 3
- Velvetleaf plant response rating (velvetleaf; [2]): 5
- Velvetleaf plant response rating (velvetleaf; [3]): 0
- Plant response rating, Velvetleaf (velvetleaf; [4]): 0
- Plant response rating, Velvetleaf (velvetleaf; [5]): 2
- Velvetleaf plant response rating (velvetleaf; [6]): 3
- Velvetleaf plant response rating (velvetleaf; [7]): 3
- Velvetleaf plant response rating (velvetleaf; [8]): 5
- Bedstraw plant response rating (bedstraw; [1]): 0
- Bedstraw plant response rating (bedstraw; [2]): 3
- Bedstraw plant response rating (bedstraw; [3]): 0
- Plant response rating, Bedstraw (bedstraw; [4]): 0
- Plant response rating, Bedstraw (bedstraw; [5]): 0
- Bedstraw plant response rating (bedstraw; [6]): 3
- Bedstraw plant response rating (bedstraw; [7]): 0
